In PubChem BioAssay AID328 (DTP/NCI, 2004):
Toxic doses and inconclusive results are not listed.

System: BDF1 mice, P388 leukemia ip, median survival T/C
Assay: NCI In Vivo Anticancer Drug Screen. Data for tumor model P388 Leukemia (intraperitoneal) in B6D2F1 (BDF1) mice
Details: endpoint: median survival time, higher = longer survival
Outline: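 Transplantable tumour in mice; compound vs vehicle dosing; survival scored; ratio of treated to control reported.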

[1] = dose: 50.0 mg/kg/injection, schedule: Q01DX009 (ip), vehicle: saline with Tween-80
[2] = dose: 100.0 mg/kg/injection, schedule: Q01DX009 (ip), vehicle: saline with Tween-80
[3] = dose: 200.0 mg/kg/injection, schedule: Q01DX009 (ip), vehicle: saline with Tween-80
[4] = dose: 100.0 mg/kg/injection, schedule: Q01DX009 (ip), vehicle: Klucel (hydroxypropylcellulose) (HPC)
[5] = dose: 200.0 mg/kg/injection, schedule: Q01DX009 (ip), vehicle: Klucel (hydroxypropylcellulose) (HPC)
[6] = dose: 400.0 mg/kg/injection, schedule: Q01DX009 (ip), vehicle: Klucel (hydroxypropylcellulose) (HPC)
[7] = dose: 100.0 mg/kg/injection, schedule: Q04DX003 (ip), vehicle: saline with Tween-80
[8] = dose: 200.0 mg/kg/injection, schedule: Q04DX003 (ip), vehicle: saline with Tween-80
[9] = dose: 400.0 mg/kg/injection, schedule: Q04DX003 (ip), vehicle: saline with Tween-80
[10] = dose: 400.0 mg/kg/injection, schedule: Q01DX009 (ip), vehicle: saline with Tween-80
[11] = dose: 50.0 mg/kg/injection, schedule: Q01DX009 (ip), vehicle: Klucel (hydroxypropylcellulose) (HPC)
[12] = dose: 100.0 mg/kg/injection, schedule: Q04DX003 (ip), vehicle: Klucel (hydroxypropylcellulose) (HPC)
[13] = dose: 200.0 mg/kg/injection, schedule: Q04DX003 (ip), vehicle: Klucel (hydroxypropylcellulose) (HPC)

Question: `C=CCN1C=CC(=C/C=C(\C#N)C(=O)OCC)C=C1` was tested. Which T/C [1] did it give?
Answer: 99 % of control

Question: What about the T/C [2] of the same compound?
Answer: 91 % of control

Question: What about the T/C [3] of the same compound?
Answer: 99 % of control

Question: With `CCC(=O)O[C@H]1CC[C@H]2[C@@H]3CCC4=CC(=O)CC[C@]4(C)[C@H]3CC[C@]12C` as the compound, how does the T/C (dose: 100.0 mg/kg/injection, schedule: Q01DX009 (sc), vehicle: steriod suspending solution) read?
Answer: 104 % of control

Question: What about the T/C (dose: 100.0 mg/kg/injection, schedule: Q04DX003 (sc), vehicle: steriod suspending solution) of the same compound?
Answer: 105 % of control

Question: What about the T/C (dose: 200.0 mg/kg/injection, schedule: Q01DX009 (sc), vehicle: steriod suspending solution) of the same compound?
Answer: 87 % of control

Question: What about the T/C (dose: 200.0 mg/kg/injection, schedule: Q04DX003 (sc), vehicle: steriod suspending solution) of the same compound?
Answer: 100 % of control

Question: And the T/C (dose: 400.0 mg/kg/injection, schedule: Q01DX009 (sc), vehicle: steriod suspending solution)?
Answer: 91 % of control

Question: What about the T/C (dose: 400.0 mg/kg/injection, schedule: Q04DX003 (sc), vehicle: steriod suspending solution) of the same compound?
Answer: 100 % of control

Question: Which T/C [4] does the source give for `O=c1ccccn1CC1(c2ccccc2)OCCO1` here?
Answer: 95 % of control

Question: What about the T/C [5] of the same compound?
Answer: 91 % of control

Question: What about the T/C [6] of the same compound?
Answer: 95 % of control

Question: For `CC(=O)O[C@H]1[C@H]2O[C@]23[C@@H]2CC[C@@H]4C[C@@H](OC(=O)CCC(=O)O)CC[C@]4(C)[C@H]2CC[C@]3(C)[C@H]1c1ccc(=O)oc1`, which T/C (dose: 0.13 mg/kg/injection, schedule: Q01DX009 (ip), vehicle: Klucel (hydroxypropylcellulose) (HPC)) is on record?
Answer: 100 % of control

Question: And the T/C (dose: 0.25 mg/kg/injection, schedule: Q01DX009 (ip), vehicle: Klucel (hydroxypropylcellulose) (HPC))?
Answer: 101 % of control

Question: What about the T/C (dose: 0.5 mg/kg/injection, schedule: Q01DX009 (ip), vehicle: Klucel (hydroxypropylcellulose) (HPC)) of the same compound?
Answer: 101 % of control

Question: With `CC(NC(=O)/C=C\C(=O)O)c1ccccc1` (stereo unspecified) as the compound, how does the T/C [7] read?
Answer: 100 % of control

Question: What about the T/C [8] of the same compound?
Answer: 91 % of control

Question: What about the T/C [9] of the same compound?
Answer: 112 % of control

Question: For `CCC(=O)OC(C)COc1ccc(C(C)(C)C)cc1` (stereo unspecified), which T/C [2] is on record?
Answer: 110 % of control

Question: And the T/C [3]?
Answer: 110 % of control

Question: And the T/C [10]?
Answer: 124 % of control

Question: `CCCC(N)C(=O)c1ccccc1` (stereo unspecified) was tested. Which T/C (dose: 25.0 mg/kg/injection, schedule: Q01DX009 (ip), vehicle: saline) did it give?
Answer: 109 % of control

Question: And the T/C (dose: 50.0 mg/kg/injection, schedule: Q01DX009 (ip), vehicle: saline)?
Answer: 109 % of control

Question: Which results are given for `C=C(C)C12OC3(c4ccccc4)OC1C1C4OC4(CO)C(O)C4(O)C(=O)C(C)=CC4C1(O3)C(C)C2OC(=O)/C=C/C=C/c1ccccc1` (stereo unspecified)?
Answer: T/C (dose: 0.01 mg/kg/injection, schedule: Q01DX009 (ip), vehicle: saline + alcohol): 115 % of control; T/C (dose: 0.02 mg/kg/injection, schedule: Q01DX009 (ip), vehicle: saline + alcohol): 94 % of control; T/C (dose: 0.03 mg/kg/injection, schedule: Q01DX009 (ip), vehicle: saline + alcohol): 123 % of control; T/C (dose: 0.5 mg/kg/injection, schedule: Q01DX009 (ip), vehicle: saline + alcohol): 156 % of control; T/C (dose: 3.1 micrograms/kg/injection, schedule: Q01DX009 (ip), vehicle: saline + alcohol): 123 % of control; T/C (dose: 6.0 micrograms/kg/injection, schedule: Q01DX009 (ip), vehicle: saline + alcohol): 101 % of control; T/C (dose: 6.3 micrograms/kg/injection, schedule: Q01DX009 (ip), vehicle: saline + alcohol): 104 % of control; T/C (dose: 12.5 micrograms/kg/injection, schedule: Q01DX009 (ip), vehicle: saline + alcohol): 123 % of control; T/C (dose: 25.0 micrograms/kg/injection, schedule: Q01DX009 (ip), vehicle: gum acacia): 121 % of control; T/C (dose: 25.0 micrograms/kg/injection, schedule: Q01DX009 (ip), vehicle: saline + alcohol): 124 % of control; T/C (dose: 25.0 micrograms/kg/injection, schedule: Q01DX009 (ip), vehicle: saline with Tween-80): 200 % of control; T/C (dose: 50.0 micrograms/kg/injection, schedule: Q01DX009 (ip), vehicle: gum acacia): 90 % of control; T/C (dose: 50.0 micrograms/kg/injection, schedule: Q01DX009 (ip), vehicle: saline + alcohol): 155 % of control; T/C (dose: 50.0 micrograms/kg/injection, schedule: Q01DX009 (ip), vehicle: saline with Tween-80): 92 % of control; T/C (dose: 100.0 micrograms/kg/injection, schedule: Q01DX009 (ip), vehicle: saline with Tween-80): 88 % of control

Question: Which results are given for `Cc1ccc(/C=C2/C=C(c3ccccc3)OC2=O)cc1`?
Answer: T/C [11]: 109 % of control; T/C [4]: 109 % of control; T/C [12]: 100 % of control; T/C [5]: 100 % of control; T/C [13]: 95 % of control; T/C (dose: 400.0 mg/kg/injection, schedule: Q04DX003 (ip), vehicle: Klucel (hydroxypropylcellulose) (HPC)): 90 % of control

Question: For `COc1ccc(OC)c(NC(=O)C2CC2)c1`, which T/C (dose: 75.0 mg/kg/injection, schedule: Q01DX009 (ip), vehicle: saline with Tween-80) is on record?
Answer: 100 % of control

Question: What about the T/C (dose: 100.0 mg/kg/injection, schedule: Q04DX003 (ip), vehicle: saline sonified) of the same compound?
Answer: 109 % of control

Question: And the T/C (dose: 150.0 mg/kg/injection, schedule: Q01DX009 (ip), vehicle: saline with Tween-80)?
Answer: 100 % of control

Question: What about the T/C (dose: 200.0 mg/kg/injection, schedule: Q04DX003 (ip), vehicle: saline sonified) of the same compound?
Answer: 113 % of control

Question: What about the T/C (dose: 300.0 mg/kg/injection, schedule: Q01DX009 (ip), vehicle: saline with Tween-80) of the same compound?
Answer: 100 % of control

Question: What about the T/C (dose: 400.0 mg/kg/injection, schedule: Q04DX003 (ip), vehicle: saline sonified) of the same compound?
Answer: 100 % of control

Question: Which results are given for `CC(C)(C)c1cc2c3c(c1)C(C)(C)OS3(C)OC2(C)C`?
Answer: T/C (dose: 6.25 mg/kg/injection, schedule: Q04DX003 (ip), vehicle: saline with Tween-80): 102 % of control; T/C (dose: 12.5 mg/kg/injection, schedule: Q04DX003 (ip), vehicle: saline with Tween-80): 100 % of control; T/C (dose: 25.0 mg/kg/injection, schedule: Q04DX003 (ip), vehicle: saline with Tween-80): 92 % of control

Question: What does the source list for `O=C(Cl)c1ccc(N2C(=O)c3ccccc3C2=O)cc1[N+](=O)[O-]`?
Answer: T/C [1]: 118 % of control; T/C (dose: 50.0 mg/kg/injection, schedule: Q04DX003 (ip), vehicle: saline with Tween-80): 96 % of control; T/C [2]: 121 % of control; T/C [7]: 102 % of control; T/C [3]: 115 % of control; T/C [8]: 100 % of control; T/C [10]: 101 % of control; T/C [9]: 105 % of control

Question: `CC(C=C1CCCCC1)C(=O)O` (stereo unspecified) was tested. Which T/C (dose: 100.0 mg/kg/injection, schedule: Q01DX009 (ip), vehicle: saline) did it give?
Answer: 113 % of control

Question: And the T/C (dose: 200.0 mg/kg/injection, schedule: Q01DX009 (ip), vehicle: saline)?
Answer: 109 % of control

Question: And the T/C (dose: 400.0 mg/kg/injection, schedule: Q01DX009 (ip), vehicle: saline)?
Answer: 118 % of control

Question: For `CC1([CH2][Hg][I])COCC([CH2][Hg][I])O1` (stereo unspecified), which T/C (dose: 2.87 mg/kg/injection, schedule: Q04DX003 (ip), vehicle: saline) is on record?
Answer: 100 % of control

Question: What about the T/C (dose: 5.0 mg/kg/injection, schedule: Q01DX009 (ip), vehicle: saline with Tween-80) of the same compound?
Answer: 118 % of control

Question: What about the T/C (dose: 5.0 mg/kg/injection, schedule: Q04DX003 (ip), vehicle: saline with Tween-80) of the same compound?
Answer: 100 % of control

Question: What about the T/C (dose: 5.75 mg/kg/injection, schedule: Q01DX009 (ip), vehicle: saline) of the same compound?
Answer: 95 % of control

Question: What about the T/C (dose: 5.75 mg/kg/injection, schedule: Q04DX003 (ip), vehicle: saline) of the same compound?
Answer: 109 % of control

Question: What about the T/C (dose: 10.0 mg/kg/injection, schedule: Q01DX009 (ip), vehicle: saline with Tween-80) of the same compound?
Answer: 113 % of control

Question: And the T/C (dose: 10.0 mg/kg/injection, schedule: Q04DX003 (ip), vehicle: saline with Tween-80)?
Answer: 90 % of control

Question: What about the T/C (dose: 11.5 mg/kg/injection, schedule: Q01DX009 (ip), vehicle: saline) of the same compound?
Answer: 100 % of control

Question: What about the T/C (dose: 11.5 mg/kg/injection, schedule: Q04DX003 (ip), vehicle: saline) of the same compound?
Answer: 100 % of control

Question: And the T/C (dose: 17.0 mg/kg/injection, schedule: Q04DX003 (ip), vehicle: saline)?
Answer: 100 % of control

Question: And the T/C (dose: 20.0 mg/kg/injection, schedule: Q01DX009 (ip), vehicle: saline with Tween-80)?
Answer: 95 % of control

Question: And the T/C (dose: 20.0 mg/kg/injection, schedule: Q04DX003 (ip), vehicle: saline with Tween-80)?
Answer: 118 % of control

Question: What about the T/C (dose: 26.0 mg/kg/injection, schedule: Q04DX003 (ip), vehicle: saline) of the same compound?
Answer: 118 % of control

Question: What does the source list for `CC(=O)C(C#N)c1ccccc1` (stereo unspecified)?
Answer: T/C (dose: 12.5 mg/kg/injection, schedule: Q01DX009 (ip), vehicle: Klucel (hydroxypropylcellulose) (HPC)): 118 % of control; T/C (dose: 25.0 mg/kg/injection, schedule: Q01DX009 (ip), vehicle: Klucel (hydroxypropylcellulose) (HPC)): 109 % of control; T/C [11]: 90 % of control

Question: What does the source list for `N=C(N)SCCC(=O)O`?
Answer: T/C (dose: 50.0 mg/kg/injection, schedule: Q04DX003 (ip), vehicle: Klucel (hydroxypropylcellulose) (HPC)): 109 % of control; T/C [4]: 100 % of control; T/C [12]: 100 % of control; T/C [5]: 110 % of control; T/C [13]: 109 % of control; T/C [6]: 90 % of control
